Values quoted from earlier work in US8940662B2, “Methods for controlling pests” (BASF Corporation, priority 2009, dated 2015).

Legend:
ants = conditions: general statement
termites = conditions: general statement

N#Cc1nn(-c2c(Cl)cc(C(F)(F)F)cc2Cl)c(N)c1[S+]([O-])C(F)(F)F (racemic) [fipronil, (±)-5-amino-1-(2,6-dichloro-α,α,α-trifluoro-p-tolyl)-4-trifluoromethylsulfinylpyrazole-3-carbonitrile]
Toxic dose to ants (ants): about 1 nanogram per ant
Toxic dose to termites (termites): 2 nanograms per termite
